Data on two compounds can be found in patent US20170088609A1, “ANTICANCER COMBINATION THERAPY” (priority 2015, published 2017).

The subject of data set [1] is T790M-containing cell lines. Particulars: several preclinical models; cited from earlier work.
For data set [2], the system named is PC-9/GR/WR tumor xenografts. Description: PC-9/GR/WR xenograft studies (tumor volume). Format: in vivo. Particulars: SCID mice; HM61713 200 and 400 mg/kg oral gavage 5 days a week. How it is done:
To establish the PC-9/GR/WR xenograft model, female severe combined immunodeficiency (SCID) mice (18-20 g, 6 weeks of age) were purchased from Charles River Laboratories. All experimental procedures were conducted following a protocol approved by the Institutional Animal Care and Use committee of Asan Institute for Life Sciences (2015-02-062). […] Combination with WZ4002: […] Combination with HM61713: […] Body weights were measured every 3-4 days. At the end of the combination experiment with WZ4002, tumors from each group were homogenized for lysate preparation and analyzed by Western Blotting.

The next data set concerns EGFR mutant cell lines. The experiment in a line: Cellular assays comparing EGFR mutant with EGFR wild type cell lines (proliferation). It is filed as cell-based. The following applies: EGFR mutant vs EGFR wild type cell lines. From the text: (§1) Compound 1 is a small molecule epidermal growth factor receptor (EGFR) mutant-specific inhibitor. […] Anti-tumor efficacy was independent of schedule (once daily versus twice daily administration) and was tolerated by the mice at clinically relevant exposure. Compound 1 is a novel, 3rd generation EGFR mutant-specific TKI, which is currently being investigated in first and second line setting for treatment of patients with EGFR-mutated NSCLC.

For another data set, the system named is H1975 (EGFRL858R/T790M). The experiment in a line: In vivo xenograft study, NSCLC model H1975. Particulars: H1975 xenograft in mice; once daily or twice daily.
Text: as §1

The next data set deals with mutant forms of EGFR. Description: Enzymatic inhibitory activity towards EGFR. Format: biochemical.
Text: as §1

Data set [3] deals with HCC827 (EGFRDelE746-A750).
Text: as §1

For the compound `COc1cc2ncnc(Nc3ccc(F)c(Cl)c3)c2cc1NC(=O)/C=C/CN1CCCCC1` [dacomitinib], the “inhibition of T790M-containing cell lines” value in data set [1] was “effectively inhibit”.

For `C=CC(=O)Nc1cccc(Oc2nc(Nc3ccc(N4CCN(C)CC4)cc3)nc3ccsc23)c1` [compound 1, N-(3-{2-[4-(4-methyl-piperazin-1-yl)-phenylamino]-thieno[3,2-d]pyrimidin-4-yloxy}-phenyl)-acrylamide], the “response of PC-9/GR/WR tumor xenografts to monotherapy” value in data set [2] is recorded as “Cross-resistance”. In addition, in the data set on EGFR mutant cell lines, the “inhibition of proliferation of mutated cell lines at lower concentration than for cells expressing wild type EGFR receptor” value is given as “approximately 35 fold”. In addition, the “anti-tumor activity as a single agent” value in the data set on H1975 (EGFRL858R/T790M) is “Tumor regressions”; in data set [3] (HCC827 xenograft in mice, once daily or twice daily), “Tumor regressions”. For the same compound, the “blocking of the catalytic activity of EGFR mutants” value in the data set with mutant forms of EGFR (common EGFR mutants (L858R and exon 19 deletions) and certain uncommon EGFR mutants including T790M, covalent binding) is recorded as “irreversibly blocks”. Further, the “enzymatic inhibitory activity towards mutant forms of EGFR compared to wild type EGFR” value in the data set with mutant forms of EGFR (in vitro) is “more potent”. Moreover, the tolerability in mice entry in data set [3] (mouse, in vivo) is recorded as “tolerated”.
